Reference: the NIST ThermoML archive (doi:10.1021/je034209e)

Experiment: mn = molality of the nth substance listed, in mol/kg
Conditions: 298.15 K, 101.3 kPa, Liquid, Vibrating tube method

NCC(=O)O [2-aminoacetic acid] + O
Conditions | mass density [kg/m3]
m1 = 0.09741 | 1000.14
m1 = 0.2011 | 1003.37
m1 = 0.3016 | 1006.46
m1 = 0.3936 | 1009.25
m1 = 0.4878 | 1012.07
m1 = 0.5916 | 1015.1

CCC(N)C(=O)O (stereo not drawn) [(.+-.)-α-aminobutyric acid] + O
Conditions | mass density [kg/m3]
m1 = 0.03934 | 998.127
m1 = 0.08124 | 999.275
m1 = 0.1445 | 1000.99
m1 = 0.2022 | 1002.54
m1 = 0.2374 | 1003.48
m1 = 0.2864 | 1004.78
m1 = 0.3179 | 1005.6

CC(N)C(=O)O (stereo not drawn) [DL-2-aminopropanoic acid] + O
Conditions | mass density [kg/m3]
m1 = 0.0436 | 998.297
m1 = 0.08036 | 999.343
m1 = 0.1483 | 1001.26
m1 = 0.2059 | 1002.86
m1 = 0.3297 | 1006.26
m1 = 0.3863 | 1007.79
m1 = 0.4436 | 1009.33

CC(C)C[C@H](N)C(=O)O [L-leucine] + O
Conditions | mass density [kg/m3]
m1 = 0.01266 | 997.346
m1 = 0.01738 | 997.458
m1 = 0.02274 | 997.582
m1 = 0.03028 | 997.762
m1 = 0.03943 | 997.975
m1 = 0.04666 | 998.149
m1 = 0.05611 | 998.37

N[C@@H](Cc1ccccc1)C(=O)O [L-phenylalanine] + O
Conditions | mass density [kg/m3]
m1 = 0.01545 | 997.721
m1 = 0.02099 | 997.961
m1 = 0.02977 | 998.343
m1 = 0.03372 | 998.516
m1 = 0.04624 | 999.058
m1 = 0.05305 | 999.349
m1 = 0.05832 | 999.577

CC(=O)[O-].[Na+] [sodium ethanoate] + O
Conditions | mass density [kg/m3]
m1 = 0.5 | 1023.28
m1 = 1 | 1047.56
m1 = 2 | 1086.81
m1 = 4 | 1123.24
m1 = 5.5 | 1139.16
